{"source": "patent US20040132771A1", "about": "“Compositions of choleseteryl ester transfer protein inhibitors and HMG-CoA reductase inhibitors” (Pfizer Inc, priority 2002, published 2004)", "type_in_all_cases": "physicochemical", "key": {"[1]": {"experiment": "in vitro dissolution test using a syringe method (Drug 2)", "conditions": "for AUC / Drug 2 Concentration: PBS pH 6.5, 2 wt % NaTC/POPC", "method": "An 8.0 mg sample of the adsorbate was added to 40 mL phosphate buffered saline (PBS) at pH 6.5 and 290 mOsm/kg, containing 2 wt % sodium taurocholic acid and 1-palmitoyl-2-oleyl-sn-glycero-3-phosphocholine (NaTC/POPC, with a 4/1 weight ratio). The concentration of drug would have been 50 μg/mL, if all of the drug had dissolved. The test solution was stirred at room temperature in a syringe equipped with a Gelman Acrodisc 13 CR 0.45 μm PTFE filter. At each sample time, about 2 mL of the test solution was pushed through the filter and analyzed using UV at a wavelength of 256 nm to determine the concentration of torcetrapib in solution. […] Crystalline torcetrapib alone is shown as a comparison.\nCrystalline Drug 2 alone is shown as a comparison. In all cases, a sufficient amount of sample was added so that the concentration of drug would have been 50 μg/mL, if all of the drug had dissolved."}, "[2]": {"experiment": "in vitro dissolution test using a syringe method (torcetrapib)", "conditions": "for Torcetrapib Concentration / AUC: PBS pH 6.5, 2 wt % NaTC/POPC", "method": "An 8.0 mg sample of the adsorbate was added to 40 mL phosphate buffered saline (PBS) at pH 6.5 and 290 mOsm/kg, containing 2 wt % sodium taurocholic acid and 1-palmitoyl-2-oleyl-sn-glycero-3-phosphocholine (NaTC/POPC, with a 4/1 weight ratio). The concentration of drug would have been 50 μg/mL, if all of the drug had dissolved. The test solution was stirred at room temperature in a syringe equipped with a Gelman Acrodisc 13 CR 0.45 μm PTFE filter. At each sample time, about 2 mL of the test solution was pushed through the filter and analyzed using UV at a wavelength of 256 nm to determine the concentration of torcetrapib in solution. Samples were collected at 1, 2, 3, 5, 10, 15, 20, 30, 45, 60, and 90 minutes. Crystalline torcetrapib alone is shown as a comparison.\nThe dissolution rate constant was obtained by performing a least squares fit of the experimental data using the following equation: […]\nIn this test, 7.855 mg of the Solid Amorphous Adsorbate 2 was added to 40 mL phosphate buffered saline (PBS) at pH 6.5 and 290 mOsm/kg, containing 2 wt % NaTC/POPC (the concentration of drug would have been 49 μg/mL, if all of the drug had dissolved)."}, "[3]": {"experiment": "aqueous solubility of torcetrapib"}}, "data": [{"compound": "CC[C@@H]1C[C@H](N(Cc2cc(C(F)(F)F)cc(C(F)(F)F)c2)C(=O)OC)c2cc(C(F)(F)F)ccc2N1C(=O)OC(C)C", "note": "[Drug 2, [2R,4S]4-[(3,5-bis-trifluoromethyl-benzyl)-methoxycarbonyl-amino]-2-ethyl-6-trifluoromethyl-3,4-dihydro-2H-quinoline-1-carboxylic acid isopropyl ester]", "values": [{"measurement": "Dissolution Rate Constant, k", "setting": "[1]; Drug 2", "result": 0.005, "unit": "min⁻¹"}, {"measurement": "AUC90", "setting": "[1]; Drug 2, area under the aqueous concentration versus time curve after 90 minutes", "result": 383, "unit": "µg·min/mL"}, {"measurement": "AUC", "setting": "[1]; Drug 2, time 0 min", "result": 0, "unit": "µg·min/mL"}, {"measurement": "AUC", "setting": "[1]; Drug 2, time 0.5 min", "result": 0, "unit": "µg·min/mL"}, {"measurement": "AUC", "setting": "[1]; Drug 2, time 5 min", "result": 2.6, "unit": "µg·min/mL"}, {"measurement": "AUC", "setting": "[1]; Drug 2, time 15 min", "result": 17, "unit": "µg·min/mL"}, {"measurement": "AUC", "setting": "[1]; Drug 2, time 45 min", "result": 111, "unit": "µg·min/mL"}, {"measurement": "AUC", "setting": "[1]; Drug 2, time 90 min", "result": 383, "unit": "µg·min/mL"}, {"measurement": "MDC90", "setting": "[1]; maximum concentration of Drug 2 in solution during the first 90 minutes", "result": 7.6, "unit": "µg/mL"}, {"measurement": "Drug 2 Concentration", "setting": "[1]; time 0 min", "result": 0, "unit": "µg/mL"}, {"measurement": "Drug 2 Concentration", "setting": "[1]; time 0.5 min", "result": 0.1, "unit": "µg/mL"}, {"measurement": "Drug 2 Concentration", "setting": "[1]; time 5 min", "result": 1.0, "unit": "µg/mL"}, {"measurement": "Drug 2 Concentration", "setting": "[1]; time 15 min", "result": 1.8, "unit": "µg/mL"}, {"measurement": "Drug 2 Concentration", "setting": "[1]; time 45 min", "result": 4.5, "unit": "µg/mL"}, {"measurement": "Drug 2 Concentration", "setting": "[1]; time 90 min", "result": 7.6, "unit": "µg/mL"}]}, {"compound": "CCOC(=O)N1c2ccc(C(F)(F)F)cc2[C@@H](N(Cc2cc(C(F)(F)F)cc(C(F)(F)F)c2)C(=O)OC)C[C@H]1CC", "note": "[torcetrapib, [2R,4S]-4-[(3,5-bis-trifluoromethyl-benzyl)-methoxycarbonyl-amino]-2-ethyl-6-trifluoromethyl-3,4-dihydro-2H-quinoline-1-carboxylic acid ethyl ester]", "values": [{"measurement": "MDCmax,90", "setting": "[2]; maximum concentration of torcetrapib in solution during the first 90 minutes", "result": "<0.5", "unit": "µg/mL"}, {"measurement": "Torcetrapib Concentration", "setting": "[2]; time 0 min", "result": "<0.5", "unit": "µg/mL"}, {"measurement": "Torcetrapib Concentration", "setting": "[2]; time 1 min", "result": "<0.5", "unit": "µg/mL"}, {"measurement": "Torcetrapib Concentration", "setting": "[2]; time 2 min", "result": "<0.5", "unit": "µg/mL"}, {"measurement": "Torcetrapib Concentration", "setting": "[2]; time 3 min", "result": "<0.5", "unit": "µg/mL"}, {"measurement": "Torcetrapib Concentration", "setting": "[2]; time 5 min", "result": "<0.5", "unit": "µg/mL"}, {"measurement": "Torcetrapib Concentration", "setting": "[2]; time 10 min", "result": "<0.5", "unit": "µg/mL"}, {"measurement": "Torcetrapib Concentration", "setting": "[2]; time 15 min", "result": "<0.5", "unit": "µg/mL"}, {"measurement": "Torcetrapib Concentration", "setting": "[2]; time 20 min", "result": "<0.5", "unit": "µg/mL"}, {"measurement": "Torcetrapib Concentration", "setting": "[2]; time 30 min", "result": "<0.5", "unit": "µg/mL"}, {"measurement": "Torcetrapib Concentration", "setting": "[2]; time 45 min", "result": "<0.5", "unit": "µg/mL"}, {"measurement": "Torcetrapib Concentration", "setting": "[2]; time 60 min", "result": "<0.5", "unit": "µg/mL"}, {"measurement": "Torcetrapib Concentration", "setting": "[2]; time 90 min", "result": "<0.5", "unit": "µg/mL"}, {"measurement": "AUC90", "setting": "[2]; torcetrapib, area under the aqueous concentration versus time curve after 90 minutes", "result": "<45", "unit": "min-μg/mL"}, {"measurement": "Dissolution Rate Constant, k", "setting": "[2]; torcetrapib, least squares fit of [D]t=[D]o(1−e^−kt)", "result": "<0.0005", "unit": "min⁻¹"}, {"measurement": "AUC", "setting": "[2]; torcetrapib, time 0 min", "result": 0, "unit": "µg·min/mL"}, {"measurement": "AUC", "setting": "[2]; torcetrapib, time 1 min", "result": 0, "unit": "µg·min/mL"}, {"measurement": "AUC", "setting": "[2]; torcetrapib, time 2 min", "result": "<1", "unit": "µg·min/mL"}, {"measurement": "AUC", "setting": "[2]; torcetrapib, time 3 min", "result": "<1", "unit": "µg·min/mL"}, {"measurement": "AUC", "setting": "[2]; torcetrapib, time 5 min", "result": "<2", "unit": "µg·min/mL"}, {"measurement": "AUC", "setting": "[2]; torcetrapib, time 10 min", "result": "<5", "unit": "µg·min/mL"}, {"measurement": "AUC", "setting": "[2]; torcetrapib, time 15 min", "result": "<7", "unit": "µg·min/mL"}, {"measurement": "AUC", "setting": "[2]; torcetrapib, time 20 min", "result": "<10", "unit": "µg·min/mL"}, {"measurement": "AUC", "setting": "[2]; torcetrapib, time 30 min", "result": "<15", "unit": "µg·min/mL"}, {"measurement": "AUC", "setting": "[2]; torcetrapib, time 45 min", "result": "<22", "unit": "µg·min/mL"}, {"measurement": "AUC", "setting": "[2]; torcetrapib, time 60 min", "result": "<30", "unit": "µg·min/mL"}, {"measurement": "AUC", "setting": "[2]; torcetrapib, time 90 min", "result": "<45", "unit": "µg·min/mL"}, {"measurement": "solubility", "setting": "[3]", "result": "< 0.04", "unit": "µg/mL"}]}]}
